test system: TCG codon, mammalian cells; assay: TCG codon recoding efficiency of all amino acids (Table 1); type: cell-based; details: TCG codon recoding of the unnatural amino acid with the aaRS and mutation of the same table line; class symbols
Excerpt: Specific details are shown in Table 1 below, where “wt” represents the wild-type aminoacyl-tRNA synthetase, “mutation sites” indicate the positions and types of mutations related to specific unnatural amino acid binding on the wild-type aminoacyl-tRNA synthetase, and “unnatural amino acid” represents the unnatural amino acid corresponding to the mutated aminoacyl-tRNA synthetase. In the unnatural amino acid encoding efficiency, “+” indicates a recoding efficiency greater than 40%, “++” greater than 60%, and “+++” greater than 80%.
Accordingly, this application compiles all amino acids reported in the literature that are recognized by orthogonal aminoacyl-tRNA synthetases in mammalian systems and evaluates their recoding efficiency using the TCG codon as an example.

Row | Structure (SMILES) | Recoding rate (%)
1 | N[C@@H](CCC(=O)OCc1cc2c(cc1[N+](=O)[O-])OCO2)C(=O)O [compound 264] | ++ (“++” greater than 60%)
2 | C=CCCOc1ccc(C[C@H](N)C(=O)O)cc1 [compound 242] | ++ (“++” greater than 60%)
3 | C#CCC(=O)Nc1ccc(C[C@H](N)C(=O)O)cc1 [compound 352] | +++ (“+++” greater than 80%)
4 | [N-]=[N+]=NCCOc1ccc(C[C@H](N)C(=O)O)cc1 [compound 348] | ++ (“++” greater than 60%)
5 | CCCCCC#Cc1ccc(C[C@H](N)C(=O)O)cc1 [compound 311] | +++ (“+++” greater than 80%)
6 | CC(SCC(N)C(=O)O)c1cc2c(cc1[N+](=O)[O-])OCO2 (mixture of isomers) [compound 269] | + (“+” indicates a recoding efficiency greater than 40%)
7 | [N-]=[N+]=NCCCCSC[C@H](N)C(=O)O [compound 388] | ++ (“++” greater than 60%)
8 | N[C@@H](Cc1ccc(OS(=O)(=O)F)cc1)C(=O)O [compound 287] | +++ (“+++” greater than 80%)
9 | N[C@@H](Cc1ccc(C#CCCCc2ccccc2)cc1)C(=O)O [compound 320] | ++ (“++” greater than 60%)
10 | N[C@@H](Cc1ccc2ncccc2c1)C(=O)O [compound 230] | + (“+” indicates a recoding efficiency greater than 40%)
11 | N[C@@H](Cc1ccc(C(=O)c2ccc(Br)cc2)cc1)C(=O)O [compound 344] | ++ (“++” greater than 60%)
12 | N[C@@H](Cc1ccc(C(=O)c2ccc(F)cc2)cc1)C(=O)O [compound 342] | ++ (“++” greater than 60%)
13 | C=CC[S+]([O-])C[C@@H](N)C(=O)O (some centres unmarked) [compound 405] | +++ (“+++” greater than 80%)
14 | N[C@@H](Cc1ccc(C(=O)c2cccc(Cl)c2)cc1)C(=O)O [compound 341] | ++ (“++” greater than 60%)
15 | N[C@@H](Cc1ccc(NC(=O)CF)cc1)C(=O)O [compound 355] | +++ (“+++” greater than 80%)
16 | CCOc1cc(COC[C@H](N)C(=O)O)c([N+](=O)[O-])cc1OCC [compound 402] | +++ (“+++” greater than 80%)
17 | N[C@@H](Cc1c[nH]c2ccc(Br)cc12)C(=O)O [compound 414] | + (“+” indicates a recoding efficiency greater than 40%)
18 | CCCCCCCCSC[C@H](N)C(=O)O [compound 384] | ++ (“++” greater than 60%)
19 | C#CCCCSC[C@H](N)C(=O)O [compound 385] | ++ (“++” greater than 60%)
20 | N[C@@H](Cc1ccc(C#CCCC2CCCC2)cc1)C(=O)O [compound 304] | ++ (“++” greater than 60%)
21 | C=CCCC(=O)Nc1ccc(C[C@H](N)C(=O)O)cc1 [compound 353] | +++ (“+++” greater than 80%)
22 | N[C@@H](CC(=O)SCCNC(=O)OC1CCCC1)C(=O)O [compound 267] | ++ (“++” greater than 60%)
23 | N[C@@H](Cc1ccc(Oc2ccc(O)cc2)cc1)C(=O)O [compound 231] | ++ (“++” greater than 60%)

Row | Structure (SMILES) | Recoding rate (%)
24 | CC(OC(=O)CC(N)C(=O)O)c1ccccc1[N+](=O)[O-] (mixture of isomers) [compound 262] | ++ (“++” greater than 60%)
25 | N[C@@H](CCc1cc(=O)oc2cc(O)ccc12)C(=O)O [compound 347] | ++ (“++” greater than 60%)
26 | [N-]=[N+]=NCCCSC[C@H](N)C(=O)O [compound 387] | ++ (“++” greater than 60%)
27 | C#CCn1cc(C[C@H](N)C(=O)O)c2ccccc21 [compound 326] | ++ (“++” greater than 60%)
28 | CCCCSC[C@H](N)C(=O)O [compound 380] | ++ (“++” greater than 60%)
29 | N[C@@H](Cc1ccc2ccccc2c1)C(=O)O [compound 249] | + (“+” indicates a recoding efficiency greater than 40%)
30 | N[C@@H](CCCNC(=O)NCc1ccccc1[N+](=O)[O-])C(=O)O [compound 375] | ++ (“++” greater than 60%)
31 | N[C@@H](Cc1cccc(N2CCCC2)c1)C(=O)O [compound 289] | ++ (“++” greater than 60%)
32 | N[C@@H](CCC(=O)OCc1ccccc1)C(=O)O [compound 265] | ++ (“++” greater than 60%)
33 | N[C@@H](Cc1ccc(OCCCl)cc1)C(=O)O [compound 364] | ++ (“++” greater than 60%)
34 | CCSCCCC[C@H](N)C(=O)O [compound 393] | ++ (“++” greater than 60%)
35 | N[C@@H](Cc1cn(Cc2ccccc2[N+](=O)[O-])cn1)C(=O)O [compound 254] | ++ (“++” greater than 60%)
36 | CCCCC=Cc1ccc(C[C@H](N)C(=O)O)cc1 [compound 314] | ++ (“++” greater than 60%)
37 | N[C@@H](Cc1ccc(C(=O)CF)cc1)C(=O)O [compound 358] | +++ (“+++” greater than 80%)
38 | C#CCOc1ccc2[nH]cc(C[C@H](N)C(=O)O)c2c1 [compound 415] | + (“+” indicates a recoding efficiency greater than 40%)
39 | CCCCCC[C@H](N)C(=O)O [compound 376] | ++ (“++” greater than 60%)
40 | C=CCCCOc1ccc(C[C@H](N)C(=O)O)cc1 [compound 243] | ++ (“++” greater than 60%)
41 | C=CCCCCSC[C@H](N)C(=O)O [compound 378] | ++ (“++” greater than 60%)
42 | N#Cc1ccc(C[C@H](N)C(=O)O)cc1 [compound 368] | +++ (“+++” greater than 80%)
43 | N[C@@H](Cc1ccc(C=CCCc2ccc3c(c2)CCC3)cc1)C(=O)O [compound 322] | ++ (“++” greater than 60%)
44 | CC=CCOC[C@H](N)C(=O)O [compound 408] | +++ (“+++” greater than 80%)
45 | CCCCC#Cc1ccc(C[C@H](N)C(=O)O)cc1 [compound 310] | +++ (“+++” greater than 80%)

same assay, conditions: TCG codon recoding of the unnatural amino acid with the aaRS and mutation of the same table line; numeric values

Row | Structure (SMILES) | Recoding rate (%)
46 | N[C@@H](Cc1cc(Cl)ccc1Cl)C(=O)O [compound 246] | 84
47 | N[C@@H](Cc1ccc(OCCBr)cc1)C(=O)O [compound 337] | 60
48 | CC(=O)N(C)CCCC[C@H](N)C(=O)O [compound 410] | 83
49 | N#Cc1cccc(C[C@H](N)C(=O)O)c1 [compound 306] | 75
50 | CC(=O)c1ccc(C[C@H](N)C(=O)O)cc1 [compound 305] | 92
51 | COc1ccc2c(C[C@H](N)C(=O)O)c[nH]c2c1 [compound 294] | 63
52 | CCCCCCC[C@H](N)C(=O)O [compound 397] | 92
53 | [N-]=[N+]=NCC(=O)Nc1ccc(C[C@H](N)C(=O)O)cc1 [compound 349] | 84
54 | CCCCCCSC[C@H](N)C(=O)O [compound 382] | 87
55 | N[C@@H](Cc1csc2ccccc12)C(=O)O [compound 252] | 89
56 | N#Cc1ccc2c(C[C@H](N)C(=O)O)c[nH]c2c1 [compound 293] | 84
57 | [N-]=[N+]=Nc1ccc(C[C@H](N)C(=O)O)cc1 [compound 360] | 79
58 | N#Cc1ccc(C[C@H](N)C(=O)O)cc1 [compound 330] | 45
59 | N[C@@H](Cc1ccc(C(=O)c2ccccc2)cc1)C(=O)O [compound 346] | 74
60 | N[C@@H](Cc1ccc(OS(=O)(=O)F)cc1)C(=O)O [compound 373] | 68
61 | N[C@@H](Cc1c[nH]c2cc(Cl)ccc12)C(=O)O [compound 291] | 73
62 | N#Cc1cccc(C[C@H](N)C(=O)O)c1 [compound 235] | 74
63 | N[C@@H](Cc1ccc(Br)cc1)C(=O)O [compound 328] | 51
64 | CCCSC(=O)CCC(=O)NCCCC[C@H](N)C(=O)O [compound 283] | 55

Row | Structure (SMILES) | Recoding rate (%)
65 | CC(C)(C)Oc1ccc(C[C@H](N)C(=O)O)cc1 [compound 244] | 72
66 | N[C@@H](Cc1cc(F)c(F)cc1F)C(=O)O [compound 229] | 83
67 | CCOc1cc(CSC[C@H](N)C(=O)O)c([N+](=O)[O-])cc1OCC [compound 403] | 84
68 | C=CCOc1ccc(C[C@H](N)C(=O)O)cc1 [compound 241] | 83
69 | N[C@@H](Cc1ccc2ccccc2c1)C(=O)O [compound 307] | 66
70 | N[C@@H](Cc1ccc(OS(=O)(=O)F)cc1)C(=O)O [compound 372] | 70
71 | N[C@@H](Cc1ccc(C(=O)c2ccccc2)cc1)C(=O)O [compound 339] | 68
72 | N[C@@H](Cc1c[nH]c2ncccc12)C(=O)O [compound 251] | 22
73 | N[C@@H](Cc1cncs1)C(=O)O [compound 257] | 91
74 | N[C@@H](Cc1c[nH]c2c(Cl)cccc12)C(=O)O [compound 301] | 71
75 | COc1ccc(C[C@H](N)C(=O)O)cc1 [compound 365] | 89
76 | C#CCOc1ccc(C[C@H](N)C(=O)O)cc1 [compound 363] | 78
77 | N[C@@H](Cc1ccc(I)cc1)C(=O)O [compound 331] | 43
78 | COc1ccc2c(C[C@H](N)C(=O)O)c[nH]c2c1 [compound 327] | 80
79 | N[C@@H](Cc1cccc([N+](=O)[O-])c1)C(=O)O [compound 237] | 85
80 | N[C@@H](CC(=O)OCc1ccccc1[N+](=O)[O-])C(=O)O [compound 261] | 23
81 | N[C@@H](Cc1ccc(B(O)O)cc1)C(=O)O [compound 362] | 66
82 | CCCCCCCC[C@H](N)C(=O)O [compound 398] | 85
83 | N[C@@H](Cc1cccnc1)C(=O)O [compound 247] | 83

Reference: patent US20250327074A1 (SHAOXING INSTITUTE, ZHEJIANG UNIVERSITY, priority 2024, published 2025)
